Assay results published in patent US8481297B2 (priority 2009, dated 2013).
Read-outs that look alike come from different tables or passages of the source.

Tested on: U-373MG cells
Type: cell-based, human

Compound: CN[C@@H]1C[C@H]2O[C@@](C)([C@@H]1OC)n1c3ccccc3c3c4c(c5c6ccccc6n2c5c31)C(=O)NC4 [Staurosporine, staurosporine]
- effect on the difference in plaque size between VSV-rp30 and VSV-G/GFP: significant attenuation of the difference in plaque size

Compound: O=c1c(-c2ccc(O)cc2)coc2cc(O)cc(O)c12 [Genistein, genistein]
- effect on the difference in plaque size between VSV-rp30 and VSV-G/GFP (10 μM, 24 hrs): significantly attenuated the difference in plaque size

Compound: tyrphostin 51
- effect on the difference in plaque size between VSV-rp30 and VSV-G/GFP: no significant effect on the difference in plaque size
